Assay results taken from patent US20140378474A1, “5-membered heteroarylcarboxamide derivatives as plasma kallikrein inhibitors” (NOVARTIS AG, priority 2012, published 2014).
Structures can show the parent of a compound that is named as a salt.

biological target: T1, Human plasma kallikrein (Homo sapiens, UniProt P03952); assay: In vitro inhibition of plasma kallikrein (fluorogenic substrate DPro-Phe-Arg-(Rh110)-γGlu-OH); assay type: biochemical; conditions: human plasma kallikrein nominally 12 pM, substrate 0.5 μM, 1 hour pre-incubation at room temperature, read after 1 hour (t=60 min)
T1 construct: purchased Kordia (Leiden, Netherlands) batch HPKA 1303
T1 sequence (P03952 391-638 limits assumed): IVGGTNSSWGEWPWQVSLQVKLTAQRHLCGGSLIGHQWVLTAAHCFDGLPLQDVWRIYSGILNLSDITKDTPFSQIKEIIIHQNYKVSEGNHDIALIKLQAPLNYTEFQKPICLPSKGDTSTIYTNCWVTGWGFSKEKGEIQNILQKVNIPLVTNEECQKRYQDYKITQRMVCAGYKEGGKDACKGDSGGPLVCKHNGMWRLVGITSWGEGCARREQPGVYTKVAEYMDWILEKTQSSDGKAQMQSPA
T1 sequence (P03952 20-390 partner limits assumed): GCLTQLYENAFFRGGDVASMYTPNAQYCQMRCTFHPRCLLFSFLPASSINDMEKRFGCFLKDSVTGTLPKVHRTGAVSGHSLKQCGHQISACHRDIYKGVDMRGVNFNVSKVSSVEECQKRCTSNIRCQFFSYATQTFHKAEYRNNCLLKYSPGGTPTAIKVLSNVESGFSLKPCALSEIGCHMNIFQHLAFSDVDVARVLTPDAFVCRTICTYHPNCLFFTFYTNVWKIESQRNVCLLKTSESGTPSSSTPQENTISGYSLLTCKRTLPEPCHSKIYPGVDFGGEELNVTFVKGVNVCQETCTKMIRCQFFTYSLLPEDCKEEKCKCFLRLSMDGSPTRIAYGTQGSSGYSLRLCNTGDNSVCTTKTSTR
Description: In Vitro Inhibition of Plasma Kallikrein
The fluorogenic substrate DPro-Phe-Arg-(Rh110)-γGlu-OH (where DPro is the amino acid d-proline, Rh110 is the fluorophore rhodamine 110 and γGlu is a […] linked to Rh110 via the gamma-carbonyl function; from Biosyntan, Berlin, Germany), being based on the chromogenic substrate described in Gallimore et al (Thromb Res 25, 293-298, 1982), was dissolved in DMSO at 5 mM and stored at −80° C. All other chemicals were of analytical grade.
Human plasma kallikrein was purchased from Kordia (Leiden, Netherlands, batch HPKA 1303) in lyophilized form.
The protein solution was reconstituted from the lyophilisate by addition of deinonized water. The resulting stock solution comprised the protein at a concentration of 0.17 mg/ml in 4 mM sodium acetate/HCl and 150 mM NaCl at pH 5.3. The stock solution was stored in aliquots at −80° C. Enzymatic reactions were conducted in ‘assay buffer’, comprising 50 mM Hepes/NaOH at pH 7.8, 150 mM NaCl, 1 mM EDTA and 0.05% (w/v) CHAPS.
Both, enzyme and substrate were diluted in assay buffer.
All protein and peptide containing solutions were handled in siliconized tubes (Life Systems Design, Merenschwand, Switzerland). The compound solutions as well as the enzyme and the substrate solutions were transferred to 384-well plates (black Cliniplate; cat. no. 95040020 Labsystems Oy, Finland) by means of a CyBi-Well 96-channel pipettor (CyBio AG, Jena, Germany). Plate measurements were conducted by the means of a Safire2 reader (TECAN, Maennedorf, Switzerland). The Safire2 is a monochomator-based instrument and wavelengths of 485 nm and 535 nm were taken for fluorescence excitation and emission acquisition, respectively. The bandwidths were set to 10 nm in both the excitation and the emission path. The fluorescence in each well was excited by three flashes per measurement.
For the determination of IC50 values, the assays were performed at room temperature in 384-well plates with a total assay volume of 25.25 μl per well.
The test compound was dissolved in 90% (v/v) DMSO/water. For the assays, […] of the 90% (v/v) DMSO/water solution or compound solution were added per well, followed by the addition of 12.5 μl protease solution (protease in assay buffer). The final assay concentration of the human plasma kallikrein was nominally 12 pM, the 11 compound concentrations in the dilution series were in the range form 1 nM to 100 μM. After 1 hour of pre-incubation at room temperature, the reactions were started by the addition of 12.5 μl substrate solution (in assay buffer, final assay concentration was 0.5 μM). After the addition of the substrate solution, the final DMSO concentration in the assay was 0.9% (v/v). The effect of the compound on the enzymatic activity was obtained from the linear part of the progress curves and determined after 1 hour (t=60 min). The IC50 value was calculated from the plot of percentage of inhibition vs. inhibitor concentration by a logistics fit according to the following equation:
where y is the %-inhibition at the inhibitor concentration, x. A1 is the lowest inhibition value, i.e. 0%, and A2 the maximum inhibition value, i.e. 100%. The exponent, p, is the Hill coefficient. The curve fitting was conducted with the non-linear regression routine of the analysis software Origin 7.5SR6 (Origin Lab Corporation).

Compound | IC50 [nM]
COc1ccnc(C)c1CNC(=O)c1cn(Cc2ccc3nc(C)ccc3c2)nn1 [Example 2, N-((4-methoxy-2-methylpyridin-3-yl)methyl)-1-((2-methylquinolin-6-yl)methyl)-1H-1,2,3-triazole-4-carboxamide] | 3600
Cc1ccc2cc(Cn3cc(C(=O)NCc4c(C)cc(O)nc4C)nn3)ccc2n1 [Example 3, N-((6-hydroxy-2,4-dimethylpyridin-3-yl)methyl)-1-((2-methylquinolin-6-yl)methyl)-1H-1,2,3-triazole-4-carboxamide] | 573
Cc1cnc2[nH]cc(CNC(=O)c3cn(Cc4ccc5nc(C)ccc5c4)nn3)c2c1 [Example 5, N-((5-methyl-1H-pyrrolo[2,3-b]pyridin-3-yl)methyl)-1-((2-methylquinolin-6-yl)methyl)-1H-1,2,3-triazole-4-carboxamide] | 2920
O=C(NCc1cccc(Cl)c1)c1cnn(Cc2ccc(Cn3cccn3)cc2)c1 [Example 7, 1-(4-((1H-pyrazol-1-yl)methyl)benzyl)-N-(3-chlorobenzyl)-1H-pyrazole-4-carboxamide] | 1310
N=C(N)c1ccc(CNC(=O)c2cnn(Cc3ccc4ccccc4c3)c2)cc1 [Example 9, N-(4-carbamimidoylbenzyl)-1-(naphthalen-2-ylmethyl)-1H-pyrazole-4-carboxamide hydrochloride] | 0.292
N=C(N)c1ccc(CNC(=O)c2cnn(Cc3ccc(Cn4cccn4)cc3)c2)cc1 [Example 10, 1-(4-((1H-pyrazol-1-yl)methyl)benzyl)-N-(4-carbamimidoylbenzyl)-1H-pyrazole-4-carboxamide hydrochloride] | 0.878
Cc1ccc2cc(Cn3cc(C(=O)NCc4c[nH]c5ccc(Cl)cc45)cn3)ccc2n1 [Example 12, N-((5-chloro-1H-indol-3-yl)methyl)-1-((2-methylquinolin-6-yl)methyl)-1H-pyrazole-4-carboxamide] | 24.3
Cc1ccc2cc(Cn3cc(C(=O)NCc4ncc(N)nc4C)nn3)ccc2n1 [Example 13, N-((5-amino-3-methylpyrazin-2-yl)methyl)-1-((2-methylquinolin-6-yl)methyl)-1H-1,2,3-triazole-4-carboxamide] | 784
COc1ccc(Cl)c(CNC(=O)c2cn(Cc3ccc4nc(C)ccc4c3)nn2)c1F [Example 14, N-(6-chloro-2-fluoro-3-methoxybenzyl)-1-((2-methylquinolin-6-yl)methyl)-1H-1,2,3-triazole-4-carboxamide] | 42
O=C(NCc1c[nH]c2ccc(Cl)cc12)c1cnn(Cc2ccc(Cn3ccccc3=O)cc2)c1 [Example 16, N-((5-chloro-1H-indol-3-yl)methyl)-1-(4-((2-oxopyridin-1(2H)-yl)methyl)benzyl)-1H-pyrazole-4-carboxamide] | 0.328
O=C(NCc1n[nH]c2ccc(Cl)cc12)c1cnn(Cc2ccc(Cn3cccn3)cc2)c1 [Example 17, 1-(4-((1H-pyrazol-1-yl)methyl)benzyl)-N-((5-chloro-1H-indazol-3-yl)methyl)-1H-pyrazole-4-carboxamide] | 0.554
O=C(NCc1c[nH]c2ccc(Cl)cc12)c1cnn(Cc2ccc(Cn3cccn3)cc2)c1 [Example 18, 1-(4-((1H-pyrazol-1-yl)methyl)benzyl)-N-((5-chloro-1H-indol-3-yl)methyl)-1H-pyrazole-4-carboxamide] | 4.39
O=C(NCc1n[nH]c2ccc(Cl)cc12)c1cnn(Cc2ccc(CN3CCOC3=O)cc2)c1 [Example 19, N-((5-chloro-1H-indazol-3-yl)methyl)-1-(4-((2-oxooxazolidin-3-yl)methyl)benzyl)-1H-pyrazole-4-carboxamide] | 9.1
O=C(NCc1n[nH]c2ccc(Cl)cc12)c1cnn(Cc2ccc(S(=O)(=O)n3cccc3)cc2)c1 [Example 21, 1-(4-((1H-pyrrol-1-yl)sulfonyl)benzyl)-N-((5-chloro-1H-indazol-3-yl)methyl)-1H-pyrazole-4-carboxamide] | 46.4
O=C(NCc1c[nH]c2ccc(Cl)cc12)c1cnn(Cc2ccc(CN3CCOC3=O)cc2)c1 [Example 22, N-((5-chloro-1H-indol-3-yl)methyl)-1-(4-((2-oxooxazolidin-3-yl)methyl)benzyl)-1H-pyrazole-4-carboxamide] | 60
C[C@@H](NC(=O)c1cnn(Cc2ccc(Cn3cccn3)cc2)c1)c1cccc(Cl)c1F [Example 28, (R)-1-(4-((1H-pyrazol-1-yl)methyl)benzyl)-N-(1-(3-chloro-2-fluorophenyl)ethyl)-1H-pyrazole-4-carboxamide] | 27200

The remaining compounds from weak to strong by IC50, led by results:

IC50 [nM] | Compound
10200 | Cc1ccc2cc(Cn3cc(C(=O)NCc4c(C)ccnc4C)nn3)ccc2n1 [Example 1, N-((2,4-dimethylpyridin-3-yl)methyl)-1-((2-methylquinolin-6-yl)methyl)-1H-1,2,3-triazole-4-carboxamide]
2840 | Cc1ccc2cc(Cn3cc(C(=O)NCc4c(C)ccnc4C(F)(F)F)nn3)ccc2n1 [Example 6, N-((4-methyl-2-(trifluoromethyl)pyridin-3-yl)methyl)-1-((2-methylquinolin-6-yl)methyl)-1H-1,2,3-triazole-4-carboxamide]
2420 | Cc1ccc2cc(Cn3cc(C(=O)NCc4c(C)cnc(O)c4C)nn3)ccc2n1 [Example 4, N-((2-hydroxy-3,5-dimethylpyridin-4-yl)methyl)-1-((2-methylquinolin-6-yl)methyl)-1H-1,2,3-triazole-4-carboxamide]
1620 | C[C@@H](NC(=O)c1cnn(Cc2ccc(Cn3cccn3)cc2)c1)c1cccc(Cl)c1 [Example 8, (R)-1-(4-((1H-pyrazol-1-yl)methyl)benzyl)-N-(1-(3-chlorophenyl)ethyl)-1H-pyrazole-4-carboxamide]
844 | O=C(NCc1cccc(Cl)c1F)c1cnn(Cc2ccc(Cn3cccn3)cc2)c1 [Example 27, 1-(4-((1H-pyrazol-1-yl)methyl)benzyl)-N-(3-chloro-2-fluorobenzyl)-1H-pyrazole-4-carboxamide]
429 | COc1cccc(Cn2cc(C(=O)NCc3n[nH]c4ccc(Cl)cc34)cn2)c1 [Example 26, N-((5-chloro-1H-indazol-3-yl)methyl)-1-(3-methoxybenzyl)-1H-pyrazole-4-carboxamide]
353 | COc1ccc(Cn2cc(C(=O)NCc3n[nH]c4ccc(Cl)cc34)cn2)cc1 [Example 11, N-((5-chloro-1H-indazol-3-yl)methyl)-1-(4-methoxybenzyl)-1H-pyrazole-4-carboxamide]
312 | COc1cc(Cn2cc(C(=O)NCc3n[nH]c4ccc(Cl)cc34)cn2)cc(OC)c1 [Example 25, N-((5-chloro-1H-indazol-3-yl)methyl)-1-(3,5-dimethoxybenzyl)-1H-pyrazole-4-carboxamide]
285 | COc1ccc(Cn2cc(C(=O)NCc3n[nH]c4ccc(Cl)cc34)cn2)cc1OC [Example 24, N-((5-chloro-1H-indazol-3-yl)methyl)-1-(3,4-dimethoxybenzyl)-1H-pyrazole-4-carboxamide]
134 | O=C(NCc1c[nH]c2ccc(Cl)cc12)c1cnn(Cc2ccc(S(=O)(=O)n3cccc3)cc2)c1 [Example 23, 1-(4-((1H-pyrrol-1-yl)sulfonyl)benzyl)-N-((5-chloro-1H-indol-3-yl)methyl)-1H-pyrazole-4-carboxamide]
10.9 | Cc1ccc2cc(Cn3cc(C(=O)NCc4n[nH]c5ccc(Cl)cc45)cn3)ccc2n1 [Example 20, N-((5-chloro-1H-indazol-3-yl)methyl)-1-((2-methylquinolin-6-yl)methyl)-1H-pyrazole-4-carboxamide]
0.107 | O=C(NCc1n[nH]c2ccc(Cl)cc12)c1cnn(Cc2ccc(Cn3ccccc3=O)cc2)c1 [Example 15, N-((5-chloro-1H-indazol-3-yl)methyl)-1-(4-((2-oxopyridin-1(2H)-yl)methyl)benzyl)-1H-pyrazole-4-carboxamide]
